Values of other authors, collected in PMC5096457 (Cell chemical biology, 2016).

How the values were obtained:
[1] = test system: NIH 3T3 Src−/− cells overexpressing Src (Y529F); conditions: high micromolar concentrations; ref Georghiou et al., 2012
c-Kit = conditions: ref DiNitto et al., 2010

SMILES	global tyrosine phosphorylation [1]	fold increase in IC50 against activated kinase target (c-Kit) [fold]
NC(=O)[C@@H]1CCCNC(=O)[C@H](Cc2ccc([N+](=O)[O-])cc2)NC(=O)[C@H](Cc2ccc(F)cc2)NC(=O)[C@H](CC2CCCCC2)NC(=O)/C=C/C(=O)N1 [MC25a]	decreased global tyrosine phosphorylation	
CCN(CC)CCNC(=O)c1c(C)[nH]c(/C=C2\C(=O)Nc3ccc(F)cc32)c1C [sunitinib]		300
